The data set can be described thus: Human HepG2 cell viability assay in 384 well format. It is filed as toxicity, cell-based. Details: dose 125 nL, time 70.5 hour; cytotoxicity at 70.5 h: concentration not given beside the values. Conditions: HepG2 cells, read-out: Inhibition.
For the compound `CCn1ccnc1CN1CCCC(CO)(Cc2cccc(OC)c2)C1` (stereo not drawn), the cytotoxicity at 70.5 h was -14.1%.
Under `CC(C)NC(=O)COc1nc(C(C)C)no1` stands 18%; under `O=C(c1ccsc1)N1CCc2ncc(Cn3cncn3)n2CC1`, -14.2%; under `C[C@@H]1CN(C(=O)[C@H]2CCCO2)C[C@]12CCN(c1ccsc1)C2=O`, -11.7%.
Under `CC(=O)N1CCCC2(C1)CN(C(=O)c1ccncc1)CCO2` (stereo not drawn) stands -15.7%; under `CC(=O)N1CCCC2(C1)CN(C(=O)Cc1ccccc1)CCO2` (stereo not drawn), -15.1%; under `C[C@@H]1CN(C(=O)c2cccc(F)c2)C[C@]12CCN(c1ccsc1)C2=O`, -16.2%.
Under `Cc1nc(NCC2CC2)nc2c1COCC21CCN(S(=O)(=O)C2CC2)C1` (stereo not drawn) stands -15.4%; under `C[C@H]1CN(C(=O)c2cscn2)C[C@@]12CCN(c1ccsc1)C2=O`, -14.4%; under `COCCC1COC2(CCN(C(=O)c3cccn3C)CC2)C1` (stereo not drawn), -14.7%.
In the case of `O=C(c1ccncn1)N1CCC[C@]2(C[C@H](OCC3CC3)CO2)C1`, the cytotoxicity at 70.5 h is -15.2%.
Turning to `CCO[C@@H]1CCN(C(=O)c2ccnnc2)[C@@H]1Cc1cnn(C)c1`, the cytotoxicity at 70.5 h was determined as 3.33%.
Under `CO[C@@H]1CCN(C(=O)c2cnoc2C)[C@H]1Cc1ccccc1` stands 2.59%; under `CN1CCN(c2ncnc3c2CCN(C(=O)c2cccn2C)CC3)CC1`, 6.05%; under `O=C(CC1CC1)N1CCC2(CCCN(c3ncccn3)C2)CC1`, -10.9%.
Under `COCC(=O)N1CCC2(CC1)CN(c1ncccn1)CCO2` stands -10.1%.
For `CN(C)CCN1CC[C@@H]2[C@@H]1CCN2C(=O)c1cccc(Cl)c1`, the cytotoxicity at 70.5 h was -13.9%.
Next, `CN(Cc1cncnc1)[C@H]1CN(Cc2ccco2)[C@@H]2CCCO[C@@H]21`: -9.91%.
With `NC(=O)N1CCC2(CC1)CN(c1ncccn1)CCO2`, the cytotoxicity at 70.5 h was -7.64%.
Next, `CCO[C@@H]1CCN(C(=O)N(C)C)[C@@H]1Cc1cnn(C)c1`: -10.7%; `COCCO[C@H]1CCN(C(=O)c2cnccn2)[C@H]1Cc1ccncc1`: -1.32%; `COCC1CN(C(=O)Cc2cccs2)Cc2c1cnn2C` (stereo not drawn): 21.2%.
Under `O=C(c1cscn1)N1CC[C@H]2[C@@H]1CCC(=O)N2c1ccccc1` stands 1.24%; under `CNC(=O)[C@@]12CCO[C@@H]1CCN(S(=O)(=O)c1cccc(F)c1)C2`, -10.2%; under `O=C(c1ccnnc1)N1CCc2ncnc(C3CCOC3)c2CC1` (stereo not drawn), -9.59%.
In the case of `O=C(c1ccncc1)N1CCc2ncnc(C3CCOC3)c2CC1` (stereo not drawn), the cytotoxicity at 70.5 h is -10.1%.
On to `O=C(CC1CCCC1)N1C[C@@H]2CN(Cc3ccoc3)CCO[C@@H]2C1`, for which the cytotoxicity at 70.5 h is -11.5%.
Next, `COc1ncnc2c1CCN(CC1CCOC1)CC2` (stereo not drawn): -13.6%; `O=C(N1CCCC1)N1C[C@@H]2CN(Cc3ccoc3)CCO[C@@H]2C1`: -11.3%.
Under `Cc1cccc(CN2CC[C@H]3C[C@@H](C)O[C@@H]3C2)n1` stands 10.9%.
Next, `CCOCC1CN(C(=O)c2cscn2)Cc2cnn(CC3CC3)c21` (stereo not drawn): 8.12%; `CCOCC1CN(C(=O)Cc2ccccn2)Cc2cnn(CC)c21` (stereo not drawn): 10.8%.
With `Cc1n[nH]c(C)c1CCC(=O)NCC1COc2ccccc2C1` (stereo not drawn), the cytotoxicity at 70.5 h was -2.08%.
Next, `CCn1ccnc1CN(C)C1CCCN(CCCc2ccccc2)C1` (stereo not drawn): 18.6%.
For the compound `CSc1ccc2cc(CN(C)CCCN(C)C)c(=O)[nH]c2c1`, the cytotoxicity at 70.5 h was -11.2%.
Under `COCCn1ccnc1C1CCCN(C(=O)CSc2nnc(C)o2)C1` (stereo not drawn) stands -5.99%.
Under `CC1c2cccn2CCN1C(=O)CCCc1nc(-c2ccco2)no1` (stereo not drawn) stands -7.42%.
Next, `CCc1nccn1CCC(=O)N1CC[C@@H](c2sccc2C)[C@H](O)C1`: -12.3%; `Cc1ccnc(N2CCN(C[C@]3(O)CCCN4CCCC[C@@H]43)CC2)c1`: 1.52%.
Regarding `CC(C)=CCCC(C)CN1CCC(n2cc(C(C)(C)O)nn2)CC1` (stereo not drawn), the cytotoxicity at 70.5 h is -8.45%.
Next, `Cc1ccc(-c2ccnc(NC(C)c3n[nH]c(=O)[nH]3)n2)c(C)n1` (stereo not drawn): -12.8%; `O=c1n(CC2COCCO2)nc(CC2CCNCC2)n1-c1ccccc1` (stereo not drawn): -3.66%.
Turning to `Cc1cnc(C(=O)NCC2CCOc3ccccc3C2)cn1` (stereo not drawn), the cytotoxicity at 70.5 h worked out at 14.4%.
Next, `Cn1ncc(N2CCOC(CCNC(=O)NC(C)(C)C)C2)cc1=O` (stereo not drawn): 19.2%.
Next, `COc1cccc(OCCCc2cncc(C(N)=O)c2)c1`: -13.7%; `COCCCN1CC2(CCN(Cc3ncc[nH]3)CC2)CC1=O`: -4.09%.
With `COc1ccc2c(c1)OCC(Cc1ccnc(N)n1)C2` (stereo not drawn), the cytotoxicity at 70.5 h came out at 8.07%.
`O[C@H]1[C@H](n2cc(-c3ccccn3)nn2)c2ccccc2C12CCNCC2`: the cytotoxicity at 70.5 h is -3.68%.
Under `COCCCN1C(=O)CC[C@H]2CN(c3cc(C(N)=O)ccn3)CC[C@H]21` stands -7.97%; under `CC(=O)c1cccc(CN2CCCC23CCN(c2ccccn2)CC3)c1`, -4.38%; under `OC(c1ccccn1)C1CCN(Cc2cc3n(n2)CCCNC3)CC1` (stereo not drawn), -21%.
Under `Cc1nccn1CCC1CCCCN1Cc1cnc(N(C)C)nc1` (stereo not drawn) stands -3.91%.
Take `O=C(N1CC(c2cccnc2)C1)C1(c2ccc(F)cc2)CCOCC1`: the cytotoxicity at 70.5 h was 3.01%.
Under `C[C@@H]1CN(S(=O)(=O)c2ccc(F)cc2Cl)C[C@]1(C)O` stands -0.172%; under `COc1ccc(OC)c2c(C)cc(N(C)CCCO)nc12`, 4.59%.
On to `CC(C)(C)c1oc(C(N)=O)cc1CN1CCCCC(N)C1` (stereo not drawn), for which the cytotoxicity at 70.5 h is -7.89%.
Next, `COc1ccc2c(c1)OCC(CNC(=O)c1cc(C(C)C)on1)C2` (stereo not drawn): -20.5%; `CCN(CC)C(=O)[C@@H]1C[C@@H](NC(=O)c2cccn2C2CC2)CN1C`: -7.5%; `COc1cccc([C@@H](C)n2ccnc2-c2cc3n(n2)CCNC3)c1`: -10.2%.
Next, `COCCN1C2(CCN(Cc3nccs3)C2)c2ccccc2S1(=O)=O` (stereo not drawn): -12.7%; `CN(C)CC(=O)N1CCC2(CC1)CN(c1ncccn1)CCO2`: 5.39%.
As for `N#Cc1cccc(C(=O)N2CC[C@H]3[C@H]2CCN3CC2CCOCC2)c1`, the cytotoxicity at 70.5 h was found to be 26.3%.
Consider `O=C(c1cccc(F)c1)N1CC[C@H]2[C@H]1CCN2CC1CCOCC1`, for which the cytotoxicity at 70.5 h is -6.77%.
Under `CCCS(=O)(=O)N1C[C@H](N(C)Cc2ccco2)[C@@H]2OCCC[C@@H]21` stands -6.06%; under `O=C1NC2(CCN(c3ncccn3)CC2)CC1c1cccnc1` (stereo not drawn), -7.58%; under `c1ccc(OC2COC3(CCN(Cc4ccccn4)CC3)C2)cc1` (stereo not drawn), 25.2%.
On to `Cn1ccnc1CN1CCC2(CC1)CCN(c1cncnc1)C2=O`, for which the cytotoxicity at 70.5 h was -3.96%.
Regarding `Cn1cc(C(=O)N2CC[C@@H]3[C@@H]2CCN3Cc2cccc(C#N)c2)cn1`, the cytotoxicity at 70.5 h came to 0.809%.
Next, `Cc1ccccc1N1CC2(CCN(Cc3nccn3C)C2)CC1=O` (stereo not drawn): -13.1%.
Next, `COCCN1C(=O)CCC12CCCN(Cc1nccs1)CC2` (stereo not drawn): -6.77%.
On to `Cc1cnc(C(=O)N2CC[C@H]3[C@@H]2CCC(=O)N3c2cccnc2)cn1`, for which the cytotoxicity at 70.5 h was -14.6%.
Under `O=C(C1CC(F)(F)C1)N1C[C@@H]2CN(Cc3ccsc3)CCO[C@@H]2C1` stands -14.8%; under `CNC(=O)[C@@]12CCO[C@@H]1CCN(Cc1cccc(C)c1)C2`, -12.5%; under `O=C(C1CCOCC1)N1C[C@@H]2CN(Cc3ccsc3)CCO[C@@H]2C1`, -10.4%.
Under `Cc1ncnc2c1CCN(CC1CCOC1)CC2` (stereo not drawn) stands -8.05%.
Under `O=C(Cc1cccs1)N1C[C@@H]2CN(Cc3ccoc3)CCO[C@@H]2C1` stands -15.2%; under `Cc1nc(CN2CCC3(CC2)CCN(C(=O)c2cscn2)C3)cs1`, -13.7%.
In the case of `Cc1ccoc1C(=O)N1CC[C@H]2[C@@H]1CCC(=O)N2c1cccnc1`, the cytotoxicity at 70.5 h is -14.8%.
Under `CN(C)[C@@H]1CCN(C(=O)Cc2ccc(F)cc2)[C@H]1Cc1ccncc1` stands -15.9%; under `O=C(c1cccnc1)N1CCn2cc(CN3CCCC3)nc2C1`, -6.71%.
On to `Cc1noc(C)c1CN1CCC[C@]2(C[C@@H](Oc3ccccn3)CO2)C1`, for which the cytotoxicity at 70.5 h is -0.591%.
Under `CN(Cc1ccco1)[C@@H]1CN(CC2CCOCC2)C[C@@H]2CCCO[C@@H]21` stands 4.38%; under `CCOCC1CN(C(=O)Cc2ccccn2)Cc2c1cnn2C` (stereo not drawn), -7.19%.
Under `Cc1cnc(N2CC[C@@H]3O[C@@H](COCc4ccccn4)CC[C@@H]32)nc1` stands -8.03%; under `c1ccc(O[C@@H]2CO[C@@]3(CCCN(CC4CCOCC4)C3)C2)nc1`, -8.71%.
Turning to `O=C1[C@@H]2CCN(Cc3ccccn3)C[C@@H]2OCCN1c1ccccc1`, the cytotoxicity at 70.5 h was -4.44%.
For `c1ccc(O[C@H]2CO[C@@]3(CCCN(Cc4nccs4)C3)C2)nc1`, the cytotoxicity at 70.5 h was 42.1%.
As for `O=C1CC2(CCN(Cc3cccnc3)C2)CN1c1cncnc1` (stereo not drawn), the cytotoxicity at 70.5 h was -2.69%.
Under `O=C(NCc1cccnc1)[C@@H]1CC[C@@H]2[C@@H](CCN2c2ncc(F)cn2)O1` stands -3.65%; under `CN(Cc1cccnc1)C1CC2(CCN(Cc3cccnc3)CC2)C1`, -13.8%.
Under `Cc1noc(C)c1CN1CCN(Cc2cccnc2)c2ncccc2C1` stands -6.13%; under `COCCN1CCN(Cc2ccncc2)c2ncccc2C1`, -11%.
Under `CN(Cc1ccco1)[C@@H]1CN(Cc2nccn2C)[C@@H]2CCCO[C@H]12` stands -8.73%.

Values taken from ChEMBL document CHEMBL3507680, “University of Dundee, Gates Library screen for HepG2 cell viability”.
